Laboratory results as given in patent US9902696B2, “1,4-substituted piperidine derivatives” (Cephalon, Inc., priority 2015, dated 2018).
Read-outs that look alike come from different tables or passages of the source.

How the values were obtained:
[1] = molecular target: T1, recombinant human baculovirus-expressed GST-tagged FASN (Homo sapiens, UniProt P49327); assay: FASN enzyme activity assay, fluorescence-based detection of CoA with CPM; type: biochemical; conditions: 5 nM FASN, 150 μM NADPH, 10 μM acetyl-CoA, 25 μM malonyl-CoA, 90 minutes incubation
T1 construct: GST
T1 sequence (P49327 whole entry): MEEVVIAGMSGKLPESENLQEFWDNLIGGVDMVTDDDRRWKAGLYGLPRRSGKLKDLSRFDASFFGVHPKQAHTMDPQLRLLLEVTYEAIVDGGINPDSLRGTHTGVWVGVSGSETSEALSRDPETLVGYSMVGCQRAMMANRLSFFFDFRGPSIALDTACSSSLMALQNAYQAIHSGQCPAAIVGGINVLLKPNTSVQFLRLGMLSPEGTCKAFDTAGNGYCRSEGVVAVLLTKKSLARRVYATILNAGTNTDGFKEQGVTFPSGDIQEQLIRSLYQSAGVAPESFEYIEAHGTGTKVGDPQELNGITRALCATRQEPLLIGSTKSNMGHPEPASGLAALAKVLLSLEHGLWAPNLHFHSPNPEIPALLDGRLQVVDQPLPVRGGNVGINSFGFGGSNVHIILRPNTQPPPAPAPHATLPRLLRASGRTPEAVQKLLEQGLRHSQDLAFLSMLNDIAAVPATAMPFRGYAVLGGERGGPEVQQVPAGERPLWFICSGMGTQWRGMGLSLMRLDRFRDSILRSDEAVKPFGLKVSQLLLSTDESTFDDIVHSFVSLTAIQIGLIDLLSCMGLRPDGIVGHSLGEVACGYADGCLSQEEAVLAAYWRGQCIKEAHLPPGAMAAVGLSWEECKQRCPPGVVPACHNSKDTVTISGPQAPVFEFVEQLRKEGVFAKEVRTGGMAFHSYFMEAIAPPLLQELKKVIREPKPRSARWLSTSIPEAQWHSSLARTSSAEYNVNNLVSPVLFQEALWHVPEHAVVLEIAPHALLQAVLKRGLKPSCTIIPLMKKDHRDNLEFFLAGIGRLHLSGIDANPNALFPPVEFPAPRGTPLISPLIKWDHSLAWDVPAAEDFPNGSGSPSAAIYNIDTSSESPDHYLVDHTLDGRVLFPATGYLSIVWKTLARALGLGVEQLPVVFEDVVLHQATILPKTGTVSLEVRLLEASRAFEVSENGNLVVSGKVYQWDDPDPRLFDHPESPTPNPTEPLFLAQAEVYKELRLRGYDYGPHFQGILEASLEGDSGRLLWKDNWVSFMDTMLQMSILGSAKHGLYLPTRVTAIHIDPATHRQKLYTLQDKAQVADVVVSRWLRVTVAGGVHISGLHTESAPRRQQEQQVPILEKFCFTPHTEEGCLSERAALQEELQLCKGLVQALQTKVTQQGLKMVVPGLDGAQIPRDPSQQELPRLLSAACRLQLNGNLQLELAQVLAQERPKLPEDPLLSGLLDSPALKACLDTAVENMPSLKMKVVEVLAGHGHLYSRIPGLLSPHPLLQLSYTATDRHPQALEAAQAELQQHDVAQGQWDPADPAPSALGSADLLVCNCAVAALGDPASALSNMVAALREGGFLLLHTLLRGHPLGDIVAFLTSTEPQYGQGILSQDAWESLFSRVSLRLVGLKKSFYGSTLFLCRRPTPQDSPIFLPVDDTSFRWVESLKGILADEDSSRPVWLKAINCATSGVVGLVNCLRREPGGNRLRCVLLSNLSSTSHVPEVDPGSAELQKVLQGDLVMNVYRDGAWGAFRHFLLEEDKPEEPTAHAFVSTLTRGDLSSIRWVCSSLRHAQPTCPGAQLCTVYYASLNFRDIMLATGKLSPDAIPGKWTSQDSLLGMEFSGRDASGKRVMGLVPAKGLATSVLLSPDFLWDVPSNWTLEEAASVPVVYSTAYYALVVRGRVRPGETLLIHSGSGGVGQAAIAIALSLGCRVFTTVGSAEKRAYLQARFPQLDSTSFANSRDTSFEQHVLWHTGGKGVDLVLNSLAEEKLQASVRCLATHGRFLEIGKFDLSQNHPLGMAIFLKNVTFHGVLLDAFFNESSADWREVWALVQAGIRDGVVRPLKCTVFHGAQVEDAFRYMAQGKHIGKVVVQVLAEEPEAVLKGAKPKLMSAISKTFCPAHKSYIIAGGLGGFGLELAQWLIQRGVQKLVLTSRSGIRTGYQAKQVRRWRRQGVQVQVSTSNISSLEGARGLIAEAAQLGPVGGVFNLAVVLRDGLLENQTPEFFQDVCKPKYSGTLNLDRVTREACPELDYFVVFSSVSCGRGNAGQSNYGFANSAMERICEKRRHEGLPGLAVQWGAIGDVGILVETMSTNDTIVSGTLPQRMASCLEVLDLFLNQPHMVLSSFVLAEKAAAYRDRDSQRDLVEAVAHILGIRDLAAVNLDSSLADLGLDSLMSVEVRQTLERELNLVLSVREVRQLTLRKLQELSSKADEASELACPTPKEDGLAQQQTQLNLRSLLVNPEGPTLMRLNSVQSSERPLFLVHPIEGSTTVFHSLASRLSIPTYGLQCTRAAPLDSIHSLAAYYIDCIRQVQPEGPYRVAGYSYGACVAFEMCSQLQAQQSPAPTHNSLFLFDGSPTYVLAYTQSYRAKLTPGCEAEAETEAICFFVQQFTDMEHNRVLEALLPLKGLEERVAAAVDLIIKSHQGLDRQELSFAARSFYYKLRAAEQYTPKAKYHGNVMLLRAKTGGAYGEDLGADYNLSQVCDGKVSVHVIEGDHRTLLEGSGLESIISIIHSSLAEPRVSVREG
Method in brief: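 Human GST-tagged FASN, baculovirus-expressed (5 nM), in 50 mM HEPES pH 7.5 with 150 μM NADPH, 10 μM acetyl-CoA, 25 μM malonyl-CoA, 0.5% DMSO; malonyl-CoA-started, 90 min. Released CoA detected with CPM (50 μM dilution), 30 min, fluorescence ex 390/em 530. IC50 from variable-slope sigmoidal fit of % inhibition versus log concentration.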

[2] = read-out: IC50 data for Additional Compounds of Formulae I-V(a): Activity
[3] = read-out: IC50 data for Compounds of Formulae I-V/V(a): Activity

Row | Structure (SMILES) | melting point [°C] | IC50 [1, 2] [nM] | IC50 [1, 3] [nM]
1 | CC(C)NC(=O)N1CCC(Oc2ccc(-c3ccc4nccn4c3Cl)cc2)CC1 [Example 570, 4-[4-(5-Chloroimidazo[1,2-a]pyridin-6-yl)phenoxy]-N-isopropyl-piperidine-1-carboxamide] | 220 | 1 to 99 | 
2 | CCCNC(=O)N1CCC(Oc2ccc(-c3ccc4nccn4c3Cl)cc2)CC1 [Example 566, 4-[4-(5-Chloroimidazo[1,2-a]pyridin-6-yl)phenoxy]-N-propyl-piperidine-1-carboxamide] | 184 | 1 to 99 | 
3 | CC(C)CONC(=O)N1CCC(Oc2ccc(-c3ccc4nccn4c3Cl)cc2)CC1 [Example 571, 4-[4-(5-Chloroimidazo[1,2-a]pyridin-6-yl)phenoxy]-N-isobutoxy-piperidine-1-carboxamide] | 157 | 1000 to 10000 | 
4 | CC(C)CNC(=O)N1CCC(Oc2ccc(-c3ccc4nccn4c3Cl)cc2)CC1 [Example 565, 4-[4-(5-Chloroimidazo[1,2-a]pyridin-6-yl)phenoxy]-N-isobutyl-piperidine-1-carboxamide] | 201 | 100 to 999 | 
5 | CC(C)C(=O)N1CC(Oc2ccc(-c3cnc4ccccc4c3)cc2)C1 [Example 339, 2-Methyl-1-(3-(4-(quinolin-3-yl)phenoxy)azetidin-1-yl)propan-1-one] | 162 |  | 1000 to 10000
6 | Cc1c(-c2ccc(OC3CCN(C(=O)NOC(C)C)CC3)cc2)cnc2ccccc12 [Example 588, N-Isopropoxy-4-[4-(4-methyl-3-quinolyl)phenoxy]piperidine-1-carboxamide] | 80 | 1 to 99 | 
7 | CCCCNC(=O)N1CCC(Oc2ccc(-c3ccc4nccn4c3Cl)cc2)CC1 [Example 563, N-Butyl-4-[4-(5-chloroimidazo[1,2-a]pyridin-6-yl)phenoxy]piperidine-1-carboxamide] | 171 to 177 | 1 to 99 | 
8 | CCONC(=O)N1CCC(Oc2ccc(-c3ccc4c(C)nccc4c3)cc2)CC1 [Example 586, N-Ethoxy-4-[4-(1-methyl-6-isoquinolyl)phenoxy]piperidine-1-carboxamide] | 208 | 1000 to 10000 | 
9 | CC(C)CCNC(=O)N1CCC(Oc2ccc(-c3ccc4nccn4c3Cl)cc2)CC1 [Example 572, 4-[4-(5-Chloroimidazo[1,2-a]pyridin-6-yl)phenoxy]-N-isopentyl-piperidine-1-carboxamide] | 185 | 1000 to 10000 | 
10 | Cc1nccc2cc(-c3ccc(OC4CCN(C(=O)NOC(C)C)CC4)cc3)ccc12 [Example 583, N-Isopropoxy-4-[4-(1-methyl-6-isoquinolyl)phenoxy]piperidine-1-carboxamide] | 189 | 1 to 99 | 
11 | Cc1nccc2cc(-c3ccc(OC4CCN(C(N)=O)CC4)cc3)ccc12 [Example 581, 4-[4-(1-Methyl-6-isoquinolyl)phenoxy]piperidine-1-carboxamide] | 232 | 1 to 99 | 
12 | O=C(C1CC1)N1CC(Oc2ccc(-c3cnc4ccccc4c3)cc2)C1 [Example 340, Cyclopropyl(3-(4-(quinolin-3-yl)phenoxy)azetidin-1-yl)methanone] | 187 |  | 1000 to 10000
13 | Cc1nccc2cc(-c3ccc(OC4CCN(C(=O)NO)CC4)cc3)ccc12 [Example 585, 4-[4-(1-Methyl-6-isoquinolyl)phenoxy]piperidine-1-carbohydroxamic acid] | 185 | 100 to 999 | 
14 | CCCONC(=O)N1CCC(Oc2ccc(-c3cnc4ccccc4c3C)cc2)CC1 [Example 589, 4-[4-(4-Methyl-3-quinolyl)phenoxy]-N-propoxy-piperidine-1-carboxamide] | 75 | 1 to 99 | 
15 | NC(=O)N1CCC(Oc2ccc(-c3ccc4nccn4c3Cl)cc2)CC1 [Example 577, 4-[4-(5-Chloroimidazo[1,2-a]pyridin-6-yl)phenoxy]piperidine-1-carboxamide] | 204 | 100 to 999 | 
16 | CCCONC(=O)N1CCC(Oc2ccc(-c3ccc4cccnc4c3C)cc2)CC1 [Example 574, 4-[4-(8-Methyl-7-quinolyl)phenoxy]-N-propoxy-piperidine-1-carboxamide] | 75 | 1 to 99 | 
17 | Cc1nccc2cc(-c3ccc(OC4CCN(C(=O)NCC5CC5)CC4)cc3)ccc12 [Example 582, N-(Cyclopropylmethyl)-4-[4-(1-methyl-6-isoquinolyl)phenoxy]piperidine-1-carboxamide] | 188 | 1000 to 10000 | 
18 | CCCNC(=O)N1CCC(Oc2ccc(-c3ccc4c(C)nccc4c3)cc2)CC1 [Example 579, 4-[4-(1-Methyl-6-isoquinolyl)phenoxy]-N-propyl-piperidine-1-carboxamide] | 181 | 100 to 999 | 
19 | CCNC(=O)N1CCC(Oc2ccc(-c3ccc4c(C)nccc4c3)cc2)CC1 [Example 578, N-Ethyl-4-[4-(1-methyl-6-isoquinolyl)phenoxy]piperidine-1-carboxamide] | 211 | 1000 to 10000 | 
20 | O=C(NCC1CC1)N1CCC(Oc2ccc(-c3ccc4nccn4c3Cl)cc2)CC1 [Example 568, 4-[4-(5-Chloroimidazo[1,2-a]pyridin-6-yl)phenoxy]-N-(cyclopropylmethyl)-piperidine-1-carboxamide] | 183 to 185 | 1000 to 10000 | 
21 | CCC(=O)N1CCC(Oc2ncc(-c3cnc4ccccc4c3)cn2)CC1 [Example 143, 1-[4-(5-Quinolin-3-yl-pyrimidin-2-yloxy)-piperidin-1-yl]-propan-1-one] | 162 to 166 |  | 1000 to 10000
22 | Cc1c(-c2ccc(OC3CCN(C(=O)NCC(C)C)CC3)cc2)cnc2ccccc12 [Example 590, N-Isobutyl-4-[4-(4-methyl-3-quinolyl)phenoxy]piperidine-1-carboxamide] | 153 | 1 to 99 | 
23 | Cc1nccc2cc(-c3ccc(OC4CCN(C(=O)NCC(C)C)CC4)cc3)ccc12 [Example 580, N-Isobutyl-4-[4-(1-methyl-6-isoquinolyl)phenoxy]piperidine-1-carboxamide] | 157 | 1 to 99 | 
